Results on 31 compounds are retold here after patent US9403776B2, “Aryl- and heteroaryl-substituted tetrahydrobenzazepines and use thereof to block reuptake of norepinephrine, dopamine, and serotonin” (Albany Molecular Research, Inc., priority 2005, dated 2016).

Structures are written as SMILES. Structures can show the parent of a compound that is named as a salt.

The melting point is the temperature, or range, at which the solid turns liquid. The compound `COc1ccc2c(c1)CN(C)CCC2c1ccc(Cl)cc1` (single isomer, unassigned; (-)) (as salt: hydrochloride) [Example 8 (−), (−)-5-(4-chlorophenyl)-8-methoxy-2-methyl-2,3,4,5-tetrahydro-1H-benzo[c]azepine] yielded a melting point of 210 to 211 °C. In the case of `CN1CCC(c2ccc(Cl)cc2)c2ccc(-c3cnccn3)cc2C1` (single isomer, unassigned; (-)) (as salt: maleate) [Example 41 (−), (−)-5-(4-chlorophenyl)-2-methyl-8-(pyrazin-2-yl)-2,3,4,5-tetrahydro-1H-benzo[c]azepine], the melting point lay in the range of 82 to 84 °C. Regarding `CN1CCC(c2ccccc2)c2ccc(-c3cnccn3)cc2C1` (single isomer, unassigned; (+)) (as salt: maleate) [Example 29, (+)-2-methyl-5-phenyl-8-(pyrazin-2-yl)-2,3,4,5-tetrahydro-1H-benzo[c]azepine], the melting point is 67 to 69 °C. The value for `COc1ccc2c(c1)CN(C(C)C)CCC2c1ccccc1` (racemic) (as salt: maleate) [Example 55, (+/−)-2-isopropyl-8-methoxy-5-phenyl-2,3,4,5-tetrahydro-1H-benzo[c]azepine] was 172 to 175 °C; that for `COc1ccc2c(c1)CN(C)CCC2c1ccc(F)cc1` (racemic) (as salt: hydrochloride) [Example 3, (+/−)-5-(4-fluorophenyl)-8-methoxy-2-methyl-2,3,4,5-tetrahydro-1H-benzo[c]azepine] was 149 to 150 °C; that for `CN1CCC(c2ccccc2)c2ccc(CN3CCOCC3)cc2C1` (single isomer, unassigned; (+)) (as salt: tartrate) [Example 22, (+)-4-((2-methyl-5-phenyl-2,3,4,5-tetrahydro-1H-benzo[c]azepin-8-yl)methyl)morpholine] was 124 to 127 °C.

In the case of `Cc1ccc(-c2ccc3c(c2)CN(C)CCC3c2ccc(F)cc2)nn1` (single isomer, unassigned; (+)) (as salt: maleate) [Example 89, (+)-5-(4-fluorophenyl)-2-methyl-8-(6-methylpyridazin-3-yl)-2,3,4,5-tetrahydro-1H-benzo[c]azepine], the melting point is 173 to 176 °C. In turn, `CC(C)N1CCC(c2ccccc2)c2ccc(N3CCOCC3)cc2C1` (single isomer, unassigned; (-)) (as salt: maleate) [Example 58 (−), (−)-4-(2-isopropyl-5-phenyl-2,3,4,5-tetrahydro-1H-benzo[c]azepin-8-yl)morpholine] had a melting point of 195 to 197 °C.

`CN1CCC(c2ccc3sccc3c2)c2ccc(-c3cncnc3)cc2C1.O=C(O)/C=C\C(=O)O` (single isomer, unassigned; (+)) [Example 104, (+)-5-(benzo[b]thiophen-5-yl)-2-methyl-8-(pyrimidin-5-yl)-2,3,4,5-tetrahydro-1H-benzo[c]azepine, maleate salt] gave a melting point of 111 to 117 °C. Turning to `CN1CCC(c2ccccc2)c2ccc(C#N)cc2C1` (stereo not shown) (as salt: maleate), the melting point lay in the range of 67 to 69 °C. With `COc1ccc2c(c1)CN(C)CCC2c1ccc2sccc2c1` (single isomer, unassigned; (-)) (as salt: maleate) [Example 52 (−), (−)-5-benzo[b]thiophen-5-yl-8-methoxy-2-methyl-2,3,4,5-tetrahydro-1H-benzo[c]azepine], the melting point lay in the range of 92 to 95 °C. The compound `CN1CCC(c2ccccc2)c2ccc(-c3cccnn3)cc2C1` (single isomer, unassigned; (+)) (as salt: hydrochloride) [Example 25, (+)-2-methyl-5-phenyl-8-(pyridazin-3-yl)-2,3,4,5-tetrahydro-1H-benzo[c]azepine] had a melting point of 154 to 156 °C. With `CN1CCC(c2ccccc2)c2ccc(C(C)(C)O)cc2C1` (single isomer, unassigned; (+)) (as salt: tartrate) [Example 18, (+)-2-(2-methyl-5-phenyl-2,3,4,5-tetrahydro-1H-benzo[c]azepin-8-yl)propan-2-ol], the melting point was in the range of 103 to 105 °C. The value for `Cc1ccc(-c2ccc3c(c2)CN(C)CCC3c2ccc(Cl)cc2)nn1` (single isomer, unassigned; (+)) (as salt: hydrochloride) [Example 39, (+)-5-(4-chlorophenyl)-2-methyl-8-(6-methyl-pyridazin-3-yl)-2,3,4,5-tetrahydro-1H-benzo[c]azepine] was 179 to 181 °C (dec.). The value for `CN1CCC(c2ccc(F)cc2)c2ccc(O)cc2C1` (single isomer, unassigned; (-)) (as salt: hydrochloride) [Example 14, (−)-5-(4-fluorophenyl)-2-methyl-2,3,4,5-tetrahydro-1H-benzo[c]azepin-8-ol] was 159 to 161 °C; that for `CN1CCC(c2ccc(Cl)cc2)c2ccc(N3CCOCC3)cc2C1` (single isomer, unassigned; (+)) (as salt: maleate) [Example 48, (+)-5-(4-chlorophenyl)-2-methyl-8-morpholin-4-yl-2,3,4,5-tetrahydro-1H-benzo[c]azepine] was 94 to 96 °C. The figure for `COc1ccc(C2CCN(C)Cc3cc(OC)ccc32)cc1` (racemic) (as salt: hydrochloride) [Example 5, (+/−)-5-(4-methoxyphenyl)-8-methoxy-2-methyl-2,3,4,5-tetrahydro-1H-benzo[c]azepine] is 165 to 166 °C; for `CCN1CCC(c2ccccc2)c2ccc(N3CCOCC3)cc2C1` (single isomer, unassigned; (-)) (as salt: maleate) [Example 57 (−), (−)-4-(2-ethyl-5-phenyl-2,3,4,5-tetrahydro-1H-benzo[c]azepin-8-yl)morpholine] it is 68 to 72 °C.

`COc1ccc2c(c1)CN(C)CCC2c1ccc(F)cc1` (single isomer, unassigned; (-)) (as salt: hydrochloride) [Example 4 (−), (−)-5-(4-fluorophenyl)-8-methoxy-2-methyl-2,3,4,5-tetrahydro-1H-benzo[c]azepine] yielded a melting point of 246 to 248 °C. The figure for `COc1cccc2c1C(c1ccccc1)CCN(C)C2` (racemic) (as salt: fumarate) [Example 2, (+/−)-6-methoxy-2-methyl-5-phenyl-2,3,4,5-tetrahydro-1H-benzo[c]azepine] is 154 to 156 °C. In turn, `CN1CCC(c2ccc(Cl)cc2)c2ccc(-c3ccc(N(C)C)nn3)cc2C1` (single isomer, unassigned) (as salt: maleate) [Example 45, {6-[5-(4-chlorophenyl)-2-methyl-2,3,4,5-tetrahydro-1H-benzo[c]azepine-8-yl]-pyridazin-3-yl}-dimethylamine] gave a melting point of 96 to 98 °C. `CN1CCC(c2ccccc2)c2ccc(-c3cccc(N)n3)cc2C1` (single isomer, unassigned; (+)) (as salt: maleate) [Example 32, (+)-6-(2-methyl-5-phenyl-2,3,4,5-tetrahydro-1H-benzo[c]azepin-8-yl)pyridine-2-amine] registered a melting point of 112 to 114 °C. With `Cc1ccc(-c2ccc3c(c2)CN(C)CCC3c2ccc(C#N)c(F)c2)nn1` (single isomer, unassigned; (+)) (as salt: tartrate) [Example 92 (+), (+)-2-fluoro-4-(2-methyl-8-(6-methylpyridazin-3-yl)-2,3,4,5-tetrahydro-1H-benzo[c]azepin-5-yl)benzonitrile], the melting point lay in the range of 112 to 115 °C. `c1ccc(CN2CCC(c3ccccc3)c3ccc(N4CCOCC4)cc3C2)cc1` (single isomer, unassigned; (+)) (as salt: maleate) [Example 61, (+)-4-(2-benzyl-5-phenyl-2,3,4,5-tetrahydro-1H-benzo[c]azepin-8-yl)morpholine] returned a melting point of 108 to 110 °C.

In turn, `COc1ccc2c(c1)CN(C)CCC2c1ccccc1` (racemic) (as salt: fumarate) [Example 1, (+/−)-8-methoxy-2-methyl-5-phenyl-2,3,4,5-tetrahydro-1H-benzo[c]azepine] yielded a melting point of 171 to 173 °C. The figure for `CN1CCC(c2ccc3ccccc3c2)c2ccc(N3CCOCC3)cc2C1` (single isomer, unassigned; (+)) (as salt: maleate) [Example 51, (+)-2-methyl-8-morpholin-4-yl-5-naphthalen-2-yl-2,3,4,5-tetrahydro-1H-benzo[c]azepine] is 110 to 112 °C. `CN1CCC(c2ccc3sccc3c2)c2ccc(-c3cccnn3)cc2C1.O=C(O)/C=C\C(=O)O` (single isomer, unassigned; (+)) [Example 107, (+)-5-(benzo[b]thiophen-5-yl)-2-methyl-8-(pyridazin-3-yl)-2,3,4,5-tetrahydro-1H-benzo[c]azepine, maleate salt] gave a melting point of 117 to 121 °C. The figure for `CN1CCC(c2ccccc2)c2ccc(-c3ccc4nccn4c3)cc2C1` (single isomer, unassigned; (+)) (as salt: tartrate) [Example 73, (+)-8-(imidazo[1,2-a]pyridin-6-yl)-2-methyl-5-phenyl-2,3,4,5-tetrahydro-1H-benzo[c]azepine] is 142 to 144 °C; for `Cc1ccc(-c2ccc3c(c2)CN(C)CCC3c2ccc3sccc3c2)nn1.O=C(O)/C=C\C(=O)O` (single isomer, unassigned; (+)) [Example 106, (+)-5-(benzo[b]thiophen-5-yl)-2-methyl-8-(6-methylpyridazin-3-yl)-2,3,4,5-tetrahydro-1H-benzo[c]azepine, maleate salt] it is 105 to 109 °C. `CN1CCC(c2ccc(Cl)cc2)c2ccc(-c3ccc(N(C)C)nn3)cc2C1` (single isomer, unassigned; (-)) (as salt: maleate) [Example 46, (−)-{6-[5-(4-chlorophenyl)-2-methyl-2,3,4,5-tetrahydro-1H-benzo[c]azepine-8-yl]-pyridazin-3-yl}-dimethylamine] showed a melting point of 109 to 110 °C.

Consider `COc1ccc2c(c1)CN(C)CCC2c1cc(F)c(C#N)c(F)c1` (stereo not shown) (as salt: citrate), for which the melting point was in the range of 82 to 86 °C.
